# Measurements published in PubChem BioAssay (NCI).
#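 Results reflect a 48-hour exposure of cells in 96-well plates to compound at five concentrations. The concentration for 50% growth inhibition is given as GI50. TGI is the concentration that stops growth completely.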
# How the values were obtained:
# Assay in all cases: growth of human tumour cells (NCI), 48 h
# [1] = tested on: 786-0 renal
# [2] = tested on: A498 renal
# [3] = tested on: A549 NSCLC
# [4] = tested on: ACHN renal
# [5] = tested on: BT-549 breast
# [6] = tested on: CCRF-CEM leukemia
# [7] = tested on: DU-145 prostate
# [8] = tested on: EKVX NSCLC
# [9] = tested on: HCT-116 colon
# [10] = tested on: HL-60(TB) leukemia
# [11] = tested on: HOP-62 NSCLC
# [12] = tested on: HOP-92 NSCLC
# [13] = tested on: HS 578T breast
# [14] = tested on: HT29 colon
# [15] = tested on: IGROV1 ovarian
# [16] = tested on: KM12 colon
# [17] = tested on: LOX IMVI melanoma
# [18] = tested on: M14 melanoma
# [19] = tested on: MCF7 breast
# [20] = tested on: MDA-MB-231 breast
# [21] = tested on: MDA-MB-435
# [22] = tested on: MOLT-4 leukemia
# [23] = tested on: NCI-H226 lung
# [24] = tested on: NCI-H23 lung
# [25] = tested on: NCI-H460 lung
# [26] = tested on: NCI-H522 lung
# [27] = tested on: NCI/ADR-RES ovarian
# [28] = tested on: OVCAR-3 ovarian
# [29] = tested on: OVCAR-4 ovarian
# [30] = tested on: OVCAR-5 ovarian
# [31] = tested on: OVCAR-8 ovarian
# [32] = tested on: PC-3 prostate
# [33] = tested on: RXF 393 renal
# [34] = tested on: SF-268 CNS
# [35] = tested on: SF-539 CNS
# [36] = tested on: SK-MEL-2 melanoma
# [37] = tested on: SK-MEL-28 melanoma
# [38] = tested on: SK-MEL-5 melanoma
# [39] = tested on: SK-OV-3 ovarian
# [40] = tested on: SN12C renal
# [41] = tested on: SNB-19 CNS
# [42] = tested on: SR leukemia
# [43] = tested on: SW-620 colon
# [44] = tested on: T-47D breast
# [45] = tested on: TK-10 renal
# [46] = tested on: U251 CNS
# [47] = tested on: UACC-257 melanoma
# [48] = tested on: UO-31 renal
smiles,measurement,setting,value
COc1cc(-c2nn(-c3ccc(NC(=O)NCCNS(=O)(=O)c4ccc(F)cc4)cc3)cc2-c2ccncc2)ccc1Cl,GI50,[1],0.901 µM
same,TGI,[1],6.3 µM
same,GI50,[2],0.389 µM
same,TGI,[2],2.18 µM
same,GI50,[3],1.92 µM
same,TGI,[3],23.1 µM
same,GI50,[4],2.21 µM
same,TGI,[4],8.06 µM
same,GI50,[5],0.782 µM
same,TGI,[5],4.95 µM
same,GI50,[6],0.459 µM
same,TGI,[6],> 100 µM
same,GI50,[7],0.387 µM
same,TGI,[7],10.8 µM
same,GI50,[8],1.32 µM
same,TGI,[8],> 100 µM
same,GI50,[9],0.339 µM
same,TGI,[9],1.77 µM
same,GI50,[10],0.391 µM
same,TGI,[10],2.26 µM
same,GI50,[11],0.544 µM
same,TGI,[11],51 µM
same,GI50,[12],1.45 µM
same,TGI,[12],5.91 µM
same,GI50,[13],0.453 µM
same,TGI,[13],5.98 µM
same,GI50,[14],0.318 µM
same,TGI,[14],1.23 µM
same,GI50,[15],0.795 µM
same,TGI,[15],8.4 µM
same,GI50,[16],0.39 µM
same,TGI,[16],2.03 µM
same,GI50,[17],0.556 µM
same,TGI,[17],2.88 µM
same,GI50,[18],0.324 µM
same,TGI,[18],1.53 µM
same,GI50,[19],0.3 µM
same,TGI,[19],> 100 µM
same,GI50,[20],0.65 µM
same,TGI,[20],3.38 µM
same,GI50,[21],0.17 µM
same,TGI,[21],0.418 µM
same,GI50,[22],0.583 µM
same,TGI,[22],3.99 µM
same,GI50,[23],1.38 µM
same,TGI,[23],7.3 µM
same,GI50,[24],0.632 µM
same,TGI,[24],5.18 µM
same,GI50,[25],0.387 µM
same,TGI,[25],1.51 µM
same,GI50,[26],0.295 µM
same,TGI,[26],2.7 µM
same,GI50,[27],> 100 µM
same,TGI,[27],> 100 µM
same,GI50,[28],0.246 µM
same,TGI,[28],0.665 µM
same,GI50,[29],1.04 µM
same,TGI,[29],> 100 µM
same,GI50,[30],1.21 µM
same,TGI,[30],> 100 µM
same,GI50,[31],0.588 µM
same,TGI,[31],5.38 µM
same,GI50,[32],0.453 µM
same,TGI,[32],4.75 µM
same,GI50,[33],0.247 µM
same,TGI,[33],0.888 µM
same,GI50,[34],0.629 µM
same,TGI,[34],5 µM
same,GI50,[35],0.281 µM
same,TGI,[35],0.965 µM
same,GI50,[36],0.553 µM
same,TGI,[36],2.62 µM
same,GI50,[37],1.42 µM
same,TGI,[37],9.29 µM
same,GI50,[38],0.453 µM
same,TGI,[38],1.68 µM
same,GI50,[39],0.705 µM
same,TGI,[39],8.15 µM
same,GI50,[40],0.733 µM
same,TGI,[40],8.44 µM
same,GI50,[41],0.857 µM
same,TGI,[41],> 100 µM
same,GI50,[42],0.427 µM
same,TGI,[42],3.01 µM
same,GI50,[43],0.529 µM
same,TGI,[43],12.7 µM
same,GI50,[44],0.733 µM
same,TGI,[44],5.56 µM
same,GI50,[45],1.89 µM
same,TGI,[45],6.33 µM
same,GI50,[46],0.409 µM
same,TGI,[46],2.49 µM
same,GI50,[47],1.57 µM
same,TGI,[47],4.73 µM
same,GI50,[48],2.38 µM
same,TGI,[48],> 100 µM
